According to patent US8969419B2, “Animal feed compositions and feeding methods” (priority 2009, dated 2015):

Test system: ruminal microbiota
Assay: Analysis of ruminal samples from cattle fed hop beta acids or Rumensin
Assay type: in vivo
Settings: Rumensin 300 mg/day; for Lactate Concentration, % differ from Control / Isobutyrate Concentration, % differ from Control / Isovalerate Concentration, % differ from Control / Valerate Concentration, % differ from Control / Butyrate Concentration, % differ from Control / Propionate Concentration, % differ from Control / Acetate Concentration, % differ from Control / Total VFA Concentration, % differ from Control: rumen fluid; for Lactate Concentration, % differ from Control / Isobutyrate Concentration, % differ from Control / Isovalerate Concentration, % differ from Control / Valerate Concentration, % differ from Control / Butyrate Concentration, % differ from Control / Propionate Concentration, % differ from Control / Acetate Concentration, % differ from Control / Total VFA Concentration, % differ from Control / Ruminal Ammonia Concentration, % differ from Control / Ruminal Acetate:Propionate Ratio, % differ from Control: β-acids averaged over five levels; for Ruminal pH, % differ from Control: β-acids averaged over five levels (10-300 mg/day)
Experimental: Background: Cattle were fed concentrate-based diets and were administered beta acids of hops (0, 10, 80, 160, 240, or 300 mg/day) or Rumensin (300 mg/day) to determine effects of the additives on ruminal microbiota. Rumen samples were periodically taken and pH, acetate, propionate, butyrate isobutyrate, valerate isovalerate, and total volatile fatty acid (VFA) concentrations were measured. Materials and Methods: A 10% beta acids solution (standard aqueous alkaline solution of beta acids) was subjected to dilution. Dilutions of the 10% beta acids solution were prepared (with water and KOH additions) such that solutions were prepared that contained the proper amount of beta acids (per ml) to provide proper cattle dose in 30 ml total volume (e.g. a solution was prepared that had 10 mg/30 ml (pH of 10.5) and was used to treat the 10 mg/steer/day group; another solution was prepared that had 80 mg/30 ml (pH 10.5) and was used to treat the 80 mg/steer/day group). Each animal was treated with it appropriate 30 ml of solution, once per day. A subset of ruminal fluid samples representing each of the seven treatment groups (control, five levels of beta acids and Rumensin). The beta acid levels were 10, 80 and 160, 240 and 300 mg/animal daily. The rumen fluid sampling was performed at prescribed intervals following feeding. Rumen samples were analyzed using standard accepted methodologies, and concentrations of parameters of interest determined. Results: Described in Tables I through XI are the averaged results from the 24 hour feeding period (i.e. average of analysis results for each parameter, complied from samples taken and analyzed over the course of the 24 hour feeding period) for: the control animals, the animals receiving beta acids treatments (average value at all five levels), and Rumensin treated animals. The Tables provide the maximum, minimum and average values observed. The beta acids (β-acids) and Rumensin values are reported as a percentage of the control. Positive percentage values mean that the treatment (beta acids or Rumensin) exceeded the control by the specified amount (negative values less than control by specified amount.

Structure (SMILES): CCC1(C2OC(C3OC(O)(CO)C(C)CC3C)CC2C)CCC(C2(C)CCC3(CC(O)C(C)C(C(C)C(OC)C(C)C(=O)O)O3)O2)O1 (stereo not drawn) [Rumensin, 4-[2-[5-ethyl-5-[5-[6-hydroxy-6-(hydroxymethyl)-3,5-dimethyl-oxan-2-yl]-3-methyl-oxolan-2-yl]oxolan-2-yl]-9-hydroxy-2,8-dimethyl-1,6-dioxaspiro[4.5]dec-7-yl]-3-methoxy-2-methyl-pentanoic acid]
- Lactate Concentration, % differ from Control (Ave over 24 hrs of feeding, control 0.6 mM): 10.2%
- Isobutyrate Concentration, % differ from Control (Ave over 24 hrs of feeding, control 0.79 mM): 6.84%
- Isovalerate Concentration, % differ from Control (Ave over 24 hrs of feeding, control 1.25 mM): 33.4%
- Valerate Concentration, % differ from Control (Ave over 24 hrs of feeding, control 3.06 mM): 31.7%
- Butyrate Concentration, % differ from Control (Ave over 24 hrs of feeding, control 9.3 mM): 0.6%
- Propionate Concentration, % differ from Control (Ave over 24 hrs of feeding, control 29 mM): 27.9%
- Acetate Concentration, % differ from Control (Ave over 24 hrs of feeding, control 38 mM): 9%
- Total VFA Concentration, % differ from Control (Ave over 24 hrs of feeding, control 82 mM): 14.9%
- Ruminal Ammonia Concentration, % differ from Control (Ave over 24 hrs of feeding, control 3.4 mM): −54.1%
- Ruminal Acetate:Propionate Ratio, % differ from Control (Ave over 24 hrs of feeding, control A:P ratio 1.50): −20.4%
- Ruminal pH, % differ from Control (Ave value over 24 hrs of feeding, control pH 5.69): −4.45%
- Isobutyrate Concentration, % differ from Control (Max over 24 hrs of feeding, control 1.00 mM): 5.00%
- Isovalerate Concentration, % differ from Control (Max over 24 hrs of feeding, control 1.81 mM): 26.0%
- Lactate Concentration, % differ from Control (Max over 24 hrs of feeding, control 3.0 mM): 66.7%
- Valerate Concentration, % differ from Control (Max over 24 hrs of feeding, control 3.80 mM): 39.5%
- Butyrate Concentration, % differ from Control (Max over 24 hrs of feeding, control 12.6 mM): −8.7%
- Propionate Concentration, % differ from Control (Max over 24 hrs of feeding, control 40 mM): 12.5%
- Acetate Concentration, % differ from Control (Max over 24 hrs of feeding, control 49 mM): −2%
- Total VFA Concentration, % differ from Control (Max over 24 hrs of feeding, control 107 mM): 0.9%
- Ruminal Ammonia Concentration, % differ from Control (Max over 24 hrs of feeding, control 7.2 mM): −41.7%
- Ruminal Acetate:Propionate Ratio, % differ from Control (Max over 24 hrs of feeding, control A:P ratio 1.73): 4.0%
- Ruminal pH, % differ from Control (Max value over 24 hrs of feeding, control pH 6.60): −5.45%
- Lactate Concentration, % differ from Control (Min over 24 hrs of feeding, control 0.2 mM): 0.0%
- Isobutyrate Concentration, % differ from Control (Min over 24 hrs of feeding, control 0.57 mM): 17.54%
- Isovalerate Concentration, % differ from Control (Min over 24 hrs of feeding, control 0.88 mM): 50.0%
- Valerate Concentration, % differ from Control (Min over 24 hrs of feeding, control 1.9 mM): 36.8%
- Butyrate Concentration, % differ from Control (Min over 24 hrs of feeding, control 6.6 mM): −75.8%
- Propionate Concentration, % differ from Control (Min over 24 hrs of feeding, control 18 mM): 22.2%
- Acetate Concentration, % differ from Control (Min over 24 hrs of feeding, control 28 mM): 11%
- Total VFA Concentration, % differ from Control (Min over 24 hrs of feeding, control 57 mM): 14.0%
- Ruminal Ammonia Concentration, % differ from Control (Min over 24 hrs of feeding, control 0.7 mM): −54.3%
- Ruminal Acetate:Propionate Ratio, % differ from Control (Min over 24 hrs of feeding, control A:P ratio 1.30): −25.4%
- Ruminal pH, % differ from Control (Min value over 24 hrs of feeding, control pH 5.18): −2.70%
